# Experimental data from US20240006031A1, “PHYSIOLOGICALLY-BASED PHARM[…] MODEL” (CHA UNIVERSITY INDUSTRY-ACADEMIC COOPERATION FOUNDATION, priority 2020, published 2024).
# Like-named read-outs stand apart in the source and are kept apart here.
# What was measured:
# [1] = PFHxS standard exposure calculation and risk assessment using human PBPK core model; details: standard exposure 9.7 μg/kg/day
# From the text: The final parameters were used to calculate the correlation between the mean blood concentration at steady state and the external dose during repeated exposure to PFHxS. Specifically, using a human PBPK model constructed using human physiological parameters and substance-intrinsic parameters, a dose range was simulated and set, and the correlations described above were derived using regression analysis.
# Next, the interspecies uncertainty factor (UFA) was applied to calculate the steady-state Caverage,human in humans. Specifically, the PFHxS PODhuman in the human body was calculated by using the correlation equation between the average blood concentration (Caverage) and the external dose during repeated exposure to PFHxS from which Caverage,human was derived. Next, the intraspecies uncertainty factor (UFH) was applied to the PODhuman to finalize the PFHxS standard exposure in the human body.
# The PFHxS reference standard dose for external dose to PFHxS was used to derive the margin of safety (MoS) of PFHxS for men and women. Specifically, the blood PFHxS concentrations of men in Siheung (2.29 ng/mL) and women in Daegu (1.75 ng/mL), which are highly exposed to PFHxS, were substituted into the above correlation equation between the average blood concentration (Caverage) and the external dose to calculate the external dose.
# [2] = cited from earlier work
# [3] = Internal dose of PFHxS from rat model Caverage,rat at NOAEL with uncertainty factors; parameters: species or system human; details: versus internal dose 412.7 ng/mL
# Experimental: First, to obtain the internal dose of PFHxS, the UFA was applied to the rat model by finding the Caverage,rat resulting from repeated exposure to NOAEL.
# As a result, BEPOD was calculated as 4127.4 ng/mL.
smiles,measurement,setting,value
O=S(=O)(O)C(F)(F)C(F)(F)C(F)(F)C(F)(F)C(F)(F)C(F)(F)F [PFHxS],margin of safety (MoS),"[1]; men (Siheung, blood PFHxS 2.29 ng/mL)",180.3
same,margin of safety (MoS),"[1]; women (Daegu, blood PFHxS 1.75 ng/mL)",235.9
same,blood PFHxS concentration,[2]; men in Daegu,2.19 ng/mL
same,blood PFHxS concentration,[2]; men in Siheung,2.29 ng/mL
same,blood PFHxS concentration,[2]; women in Daegu,1.75 ng/mL
same,blood PFHxS concentration,[2]; women in Siheung,1.35 ng/mL
same,actual blood levels in Koreans compared with calculated internal dose,[3],in the safe zone
